Source: patent US4048334A, “Active derivatives of methylamino in therapeutic compositions and methods of use” (priority 1974, dated 1977)

How the values were obtained:
[1] = system: isolated duodenum of the rat; test: MAGNUS test: inhibition of acetylcholine spasm (cholinolytic / spasmolytic activity in vitro)
Source text: This test consists in determining the dose of acetylcholine which, when added to the bath, provokes spasm of the isolated duodenum of the rat. The next step consists in determining the dose of the compound under study which, when added to the bath 30 seconds before the acetylcholine, reduces the spasm.

[2] = SPERBER et al., J. Amer. Chem. Soc., 71, 3352 (1949); cited from earlier work

CCCC(N)(CCC)CCC [Compound 1]
spasmolytic activity in vitro [1]: very weak, in fact practically non-existent | % of inhibition of the spasm ([1]; 0.1 × 10^-3 g/ml of bath): 0% | % of inhibition of the spasm ([1]; 0.1 × 10^-4 g/ml of bath): 0% | % of inhibition of the spasm ([1]; 0.1 × 10^-5 g/ml of bath): 0% | % of inhibition of the spasm ([1]; 0.2 × 10^-2 g/ml of bath): 36% | % of inhibition of the spasm ([1]; 0.2 × 10^-6 g/ml of bath): 0% | % of inhibition of the spasm ([1]; 0.5 × 10^-2 g/ml of bath): 60% | cholinolytic activity in vitro ([1]; in comparison with atropine): virtually non-existent | spasmolytic activity and toxicity versus corresponding trialkylethylamines [2]: less spasmolytic and more toxic than the corresponding trialkylethylamines
